# Key:
# [1] = system: aberrant crypts induced by azoxymethane (AOM); test: Inhibition of azoxymethane-induced aberrant crypt formation (induction study); format: in vivo, rat (F344); conditions: in drinking water, distal 7-8 cm of colon
# Source text: Aberrant crypts were originally described in carcinogen-induced colonic mucosa as crypts of "increased size, thicker epithelial lining and increased pericryptal zones" (Bird et al. (1989) Cancer Surv. 8:189-200). […] The anti-tumor activity of several of these agents has been confirmed in longer term AOM animal studies. The aberrant crypt model is, therefore, an ideal in vivo assay for efficacy of balsalazide and metabolites.
# Inhibition of Aberrant Crypt Induction.
# Four groups of 5 male F344 rats were used. Animals were 6-8 weeks of age at the start of dosing with a starting weight range within +/-20% of the overall mean. The expected response to AOM treatment from published studies is the formation of 100-140 aberrant crypts per animal (Wargovich et al. (1992) J. Cell. Biochem. 16G:51-54). […]
# Body weights were recorded twice weekly, and water consumed by each cage of animals measured twice weekly. Consumption is calculated as average ml/animal/cage.
# For aberrant crypt analysis, animals were sacrificed under CO2 euthanasia at the end of either three weeks or five weeks of dosing. […] After a saline rinse, the number of foci of aberrant crypts was scored by counting under a microscope at 40-100× magnification. The length of the colonic tissue was also measured. […]
# [2] = system: aberrant crypt foci induced by azoxymethane (AOM); test: Inhibition of aberrant crypt progression / multiplicity, treatment started 24 hours after second AOM injection; format: in vivo, rat
# Source text: Inhibition of Aberrant Crypt Progression. The data shown in FIG. 4 were collected from the distal 7-8 cm of colonic tissue. At these early time points, this area contained over 80% of the total aberrant crypt foci. An additional study was therefore designed to examine a longer time point, assess the distribution throughout the entire 25 cm of colon and determine if the drug treatment could be initiated after the second AOM injection.
# In the second study, groups of 8 animals received two injections of azoxymethane one week apart. Balsalazide treatment was then initiated with one group 24 hours following the second injection. Six weeks later the animals were processed for aberrant crypt analysis. Crypts were stained in situ by rectal instillation of a 0.2% solution of methylene blue for 15 min under anesthesia. Animals were then exsanguinated, colonic tissue from the anus to the caecum was excised, cleaned and fixed for 2 hours in 2% paraformaldehyde. Crypts were counted by viewing at a magnification of 40×. In addition to collecting data on the number of foci, data was also collected on the multiplicity of aberrant crypts per foci.
# Previous studies by Pretlow et al (Pretlow et al. (1992) Carcinogenesis 13:1509-1512) have reported on the relationship between aberrant crypt multiplicity and ultimate tumor development using the same carcinogenesis model. […] The data from the above experiment was analyzed to determine the effect of balsalazide on the aberrant crypt multiplicity. […] For foci with 1-3 crypts the mean inhibition ranged from 57-61% (p<0.003, Fischer exact test) while the number of foci with 4 or more crypts was reduced by a mean of 72-76% (p<0.001). When the results on the number of foci containing 4 or more crypts are compared with those containing 3 or less the difference remains statistically significant at the p<0.022 level using the Fischer exact test.
# ulcerative colitis = conditions: active and quiescent ulcerative colitis; cited from earlier work
# [3] = cited from earlier work
# [4] = rat; cited from earlier work
# HT-29 cells = test: Proliferation of HT-29 colon cancer cells, Coulter Counter cell count; format: cell-based, human
# Experimental: Cells were grown in Dulbeccos Modified Eagle medium supplemented with 10% calf serum in an atmosphere of 5% CO2 at 37° C. For growth experiments, cells were seeded into 24-well tissue culture dishes (2 cm^2 /well) at a density of 20,000 cells/well and allowed to attach for 12 hours. The growth medium was then changed and replaced with fresh media containing the test drugs.
# The test drugs were dissolved in tissue culture media at the desired concentration and added to individual wells. To determine the number of cells per well, media was removed and the cells washed with phosphate buffered saline solution. The cells were then incubated 15 minutes with trypsin-EDTA solution until detached. The detached cells were then removed from the wells and counted using a Coulter Counter (Model ZBI).
# The cell numbers shown in Table I are the average of triplicate culture wells.
# [5] = system: rectal mucosal reactive oxygen metabolite production; conditions: cited from earlier work
# HRT-18 cells = test: Growth inhibition of HRT-18 colon cancer cells; format: cell-based; conditions: Homo sapiens; HRT-18, Table IV; read-out: IC50 for inhibition of human colon cancer cell proliferation
# Experimental: For dose response studies a sensitive dye binding assay was adapted which allows simultaneous assay of multiple agents and doses in 96-well plates. Cells were plated and allowed to adhere for 24 hours prior to addition of the study drug. Cell densities were then determined 4 days later by fixation of the wells and staining with Sulforhodamine B dye.
# [6] = 6 weeks after second AOM injection, 8 animals
smiles,measurement,setting,value
O=C(O)CCNC(=O)c1ccc(/N=N/c2ccc(O)c(C(=O)O)c2)cc1 [Balsalazide],inhibition in the average number of aberrant crypts,[1]; week 1,61.8%
same,inhibition in the average number of aberrant crypts,[1]; week five,58.1%
same,"mean number of foci, Total",[2]; [6],63.75
same,"mean number of foci, multiplicity 1",[2]; [6],10.3
same,"mean number of foci, multiplicity 2",[2]; [6],19.1
same,"mean number of foci, multiplicity 3",[2]; [6],15.3
same,"mean number of foci, multiplicity 4",[2]; [6],8.5
same,"mean number of foci, multiplicity 5 to 8",[2]; [6],9.6
same,inhibition of aberrant crypt foci overall,"[2]; given beginning 24 hours following second AOM injection, 6 weeks",approximately 60%
same,mean reduction of number of foci with 4 or more crypts,[2]; p<0.001,72-76%
same,mean inhibition of foci with 1-3 crypts,"[2]; p<0.003, Fischer exact test",57-61%
same,reduction of foci with the greatest number of aberrant crypts relative to foci containing 2-3,"[2]; rat, in vivo",almost twice
same,anti-inflammatory activity in ulcerative colitis patients,ulcerative colitis,possesses anti-inflammatory activity
same,gastric or duodenal ulceration,"[3]; human, in vivo",no evidence of gastric or duodenal ulceration
same,gastrointestinal tolerance,"[3]; human, in vivo",excellent gastrointestinal tolerance
same,nephrotoxicity,"[3]; over 500 patients, some for as long as three years",no evidence of nephrotoxicity
same,maximum tolerated dose,[4],"> 12,000 mg/kg/day"
same,Cell No. on Day 10,"HT-29 cells; HT-29, 10 mM, average of triplicate wells",47500
same,activity at 10000 µM,"HT-29 cells; Homo sapiens, HT-29, 240 h, read-out: % of Control Cells",3.6%
same,reduction of rectal mucosal reactive oxygen metabolite production,"[5]; rectal biopsies, ulcerative colitis patients",over 90%
same,"effectiveness relative to taurine, ascorbate or N-acetyl cysteine",[5]; similar concentrations,more effective
same,IC50,HRT-18 cells,3.88 mM

# From US5905073A, “Use of 2-hydroxy-5-phenylazobenzoic acid derivatives as colon cancer chemopreventative and chemotherapeutic agents” (priority 1996, dated 1999)
